Results taken from patent US4596790A, “Peptides for the treatment of hyperglycaemia” (Nyegaard & Co. A/S, priority 1983, dated 1986).
Non-standard residues stand in square brackets, D forms with d. Residues, ends and D or L forms follow the SMILES beside them. No end group written: not given here. pGlu = O=C1CC[C@@H](C(=O)O)N1

Key:
[1] = reported in the literature; cited from earlier work
pancreatic β-cells = assay: insulin releasing activity (potentiation of the insulin releasing activity of glucose); settings: qualitative ranking among the compounds prepared

Molecule | hyperglycaemic and hyperinsulinaemic activity [1] | activity (insulin releasing) (pancreatic β-cells)
[pGlu]SDG | hyperglycaemic and hyperinsulinaemic activity | 
O=C(O)CNC(=O)[C@H](CC(=O)O)NC(=O)[C@H](CC(=O)O)NC(=O)[C@@H]1CCC(=O)N1 [p-Glu-Asp-Asp-Gly, H-L-(PYRO) GLUTAMYL-L-ASPARTYL-L-ASPARTYL-GLYCINE] (HELM PEPTIDE1{[Glp].D.D.G}$$$$V2.0) |  | Especially active
NC(=O)CC[C@H](NC(=O)[C@@H]1CCC(=O)N1)C(=O)N[C@@H](CC(=O)O)C(=O)NCC(=O)O [p-Glu-Gln-Asp-Gly, H-L-(PYRO) GLUTAMYL-L-GLUTAMINYL-L-ASPARTYL-GLYCINE] (HELM PEPTIDE1{[Glp].Q.D.G}$$$$V2.0) |  | most active
O=C(O)CC[C@H](NC(=O)[C@@H]1CCC(=O)N1)C(=O)N[C@@H](CC(=O)O)C(=O)NCC(=O)O [p-Glu-Glu-Asp-Gly, H-L-(PYRO) GLUTAMYL-L-GLUTAMYL-L-ASPARTYL-GLYCINE] (HELM PEPTIDE1{[Glp].E.D.G}$$$$V2.0) |  | Especially active
